Reference: PubChem BioAssay AID292 (DTP/NCI, 2004)
Values joined by “and” are separate entries in the source; they are usually repeats but may differ in a detail not shown here. Equal entries are not always repeated. Toxic doses and inconclusive results are not listed.

Test system: B6C3F1 mice, ip Sarcoma M5076, median survival T/C
Assay: NCI In Vivo Anticancer Drug Screen. Data for tumor model Sarcoma M5076 (intraperitoneal) in B6C3F1 mice
Conditions: endpoint: median survival time, higher = longer survival
How it was run: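 Mice carrying the transplanted tumour received compound treatment. Survival was recorded, and each value is the treated-group measurement divided by that of the vehicle-dosed control group.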

[1] = dose: 3.0 mg/kg/injection, schedule: Q04DX004 (ip), vehicle: saline with Tween-80
[2] = dose: 6.0 mg/kg/injection, schedule: Q04DX004 (ip), vehicle: saline with Tween-80
[3] = dose: 50.0 mg/kg/injection, schedule: Q04DX004 (ip), vehicle: saline with Tween-80
[4] = dose: 100.0 mg/kg/injection, schedule: Q04DX004 (ip), vehicle: saline with Tween-80
[5] = dose: 200.0 mg/kg/injection, schedule: Q04DX004 (ip), vehicle: saline with Tween-80
[6] = dose: 400.0 mg/kg/injection, schedule: Q04DX004 (ip), vehicle: saline with Tween-80
[7] = dose: 50.0 mg/kg/injection, schedule: Q04DX004 (ip), vehicle: Klucel (hydroxypropylcellulose) (HPC)
[8] = dose: 100.0 mg/kg/injection, schedule: Q04DX004 (ip), vehicle: Klucel (hydroxypropylcellulose) (HPC)
[9] = dose: 200.0 mg/kg/injection, schedule: Q04DX004 (ip), vehicle: Klucel (hydroxypropylcellulose) (HPC)
[10] = dose: 400.0 mg/kg/injection, schedule: Q04DX004 (ip), vehicle: Klucel (hydroxypropylcellulose) (HPC)
[11] = dose: 25.0 mg/kg/injection, schedule: Q04DX004 (ip), vehicle: saline with Tween-80
[12] = dose: 50.0 mg/kg/injection, schedule: Q04DX004 (ip), vehicle: saline
[13] = dose: 100.0 mg/kg/injection, schedule: Q04DX004 (ip), vehicle: saline
[14] = dose: 200.0 mg/kg/injection, schedule: Q04DX004 (ip), vehicle: saline
[15] = dose: 400.0 mg/kg/injection, schedule: Q04DX004 (ip), vehicle: saline

In the case of COc1cc(NCc2ccc3nc(N)nc(N)c3c2C)cc(OC)c1OC, the T/C (dose: 7.5 mg/kg/injection, schedule: Q04DX004 (ip), vehicle: Klucel (hydroxypropylcellulose) (HPC)) is reported as 117 % of control and 122 % of control, the T/C (dose: 30.0 mg/kg/injection, schedule: Q04DX004 (ip), vehicle: Klucel (hydroxypropylcellulose) (HPC)) is reported as 152 % of control and 154 % of control and the T/C (dose: 60.0 mg/kg/injection, schedule: Q04DX004 (ip), vehicle: Klucel (hydroxypropylcellulose) (HPC)) is reported as 162 % of control and 172 % of control and 179 % of control. The T/C (dose: 120.0 mg/kg/injection, schedule: Q04DX004 (ip), vehicle: Klucel (hydroxypropylcellulose) (HPC)) was 167 % of control.

In the case of COc1ccc(NC(=O)/N=C2\CN(C(=O)c3c(F)cccc3F)C(=O)N2c2ccc(OC)cc2)cc1, the T/C [1] is reported as 95 % of control, the T/C [2] is reported as 100 % of control and the T/C (dose: 12.0 mg/kg/injection, schedule: Q04DX004 (ip), vehicle: saline with Tween-80) is reported as 102 % of control. For the same compound, the T/C (dose: 24.0 mg/kg/injection, schedule: Q04DX004 (ip), vehicle: saline with Tween-80) was 95 % of control and the T/C (dose: 48.0 mg/kg/injection, schedule: Q04DX004 (ip), vehicle: saline with Tween-80) was 95 % of control.

Cc1c(C(=N)C(C#N)C#N)c(=N)oc2c1ccc1ccccc12 was tested, and the T/C [3] was 96 % of control, the T/C [4] was 96 % of control and the T/C [5] was 92 % of control. For the same compound, the T/C [6] was 94 % of control and the T/C (dose: 800.0 mg/kg/injection, schedule: Q04DX004 (ip), vehicle: saline with Tween-80) was 93 % of control.

For O=C(NCc1ccccc1)C1C(=O)C(=O)N(Cc2ccccc2)C1=O (configuration not stated), the T/C [7] was 92 % of control, the T/C [8] was 102 % of control and the T/C [9] was 100 % of control. The T/C [10] was 100 % of control and the T/C (dose: 800.0 mg/kg/injection, schedule: Q04DX004 (ip), vehicle: Klucel (hydroxypropylcellulose) (HPC)) was 96 % of control.

With NC12CC3CC(CC(C3)C1)C2 the T/C [11] was 100 % of control and the T/C [3] was 94 % of control.

In the case of O=C(O)c1nn(-c2ccccc2-c2n[nH]c(=O)[nH]c2=O)c(=O)[nH]c1=O, the T/C [3] is reported as 101 % of control, the T/C [4] is reported as 100 % of control and the T/C [5] is reported as 92 % of control.

For COc1cccc(C2C(C#N)C(=O)NC(=O)C2C#N)c1 (configuration not stated), the T/C [7] was 99 % of control, the T/C [8] was 102 % of control and the T/C [9] was 98 % of control. For the same compound, the T/C [10] was 95 % of control.

For CC[C@@]1(O)C(=O)OCc2c1cc1n(c2=O)Cc2cc3ccccc3nc2-1, the T/C (dose: 0.37 mg/kg/injection, schedule: Q04DX004 (ip), vehicle: saline with Tween-80) was 107 % of control, the T/C (dose: 0.75 mg/kg/injection, schedule: Q04DX004 (ip), vehicle: saline with Tween-80) was 109 % of control and the T/C (dose: 1.5 mg/kg/injection, schedule: Q04DX004 (ip), vehicle: saline with Tween-80) was 118 % of control. The T/C [1] was 150 % of control and the T/C [2] was 153 % of control and 159 % of control.

For O=C(O)c1ccc(NC(=O)C2C(=O)C(=O)N(c3ccc(C(=O)O)cc3)C2=O)cc1 (configuration not stated), the T/C (dose: 50.0 mg/kg/injection, schedule: Q04DX004 (ip), vehicle: Klucel + Tween-80) was 108 % of control, the T/C (dose: 100.0 mg/kg/injection, schedule: Q04DX004 (ip), vehicle: Klucel + Tween-80) was 100 % of control and the T/C (dose: 200.0 mg/kg/injection, schedule: Q04DX004 (ip), vehicle: Klucel + Tween-80) was 91 % of control. The T/C (dose: 400.0 mg/kg/injection, schedule: Q04DX004 (ip), vehicle: Klucel + Tween-80) was 97 % of control.

With OCCOCCN1CCN(CCCN2c3ccccc3Sc3ccc(C(F)(F)F)cc32)CC1 the T/C (dose: 0.75 mg/kg/injection, schedule: Q04DX004 (ip), vehicle: saline) was 105 % of control, the T/C (dose: 1.5 mg/kg/injection, schedule: Q04DX004 (ip), vehicle: saline) was 110 % of control and the T/C (dose: 3.0 mg/kg/injection, schedule: Q04DX004 (ip), vehicle: saline) was 91 % of control. The T/C (dose: 6.0 mg/kg/injection, schedule: Q04DX004 (ip), vehicle: saline) was 105 % of control, the T/C (dose: 7.5 mg/kg/injection, schedule: Q04DX004 (ip), vehicle: saline) was 96 % of control and 100 % of control and 103 % of control and the T/C (dose: 12.0 mg/kg/injection, schedule: Q04DX004 (ip), vehicle: saline) was 104 % of control. The T/C (dose: 15.0 mg/kg/injection, schedule: Q04DX004 (ip), vehicle: saline) was 102 % of control and 107 % of control and 119 % of control, the T/C (dose: 30.0 mg/kg/injection, schedule: Q04DX004 (ip), vehicle: saline) was 101 % of control and 107 % of control and 122 % of control and the T/C (dose: 60.0 mg/kg/injection, schedule: Q04DX004 (ip), vehicle: saline) was 96 % of control (2×) and 101 % of control.

With Nc1ccn(C2OC(CO)C(O)C2O)c(=O)n1 (configuration not stated) the T/C (dose: 12.5 mg/kg/injection, schedule: Q01DX009 (ip), vehicle: saline) was 150 % of control and the T/C (dose: 25.0 mg/kg/injection, schedule: Q01DX009 (ip), vehicle: saline) was 162 % of control.

In the case of CN1CCc2c(c3ccccc3c3ccccc23)C1, the T/C (dose: 75.0 mg/kg/injection, schedule: Q04DX004 (ip), vehicle: Klucel (hydroxypropylcellulose) (HPC)) is reported as 114 % of control and the T/C (dose: 150.0 mg/kg/injection, schedule: Q04DX004 (ip), vehicle: Klucel (hydroxypropylcellulose) (HPC)) is reported as 122 % of control.

In the case of NC1=NCc2c(sc3c2CCCC3)N1, the T/C (dose: 12.5 mg/kg/injection, schedule: Q04DX004 (ip), vehicle: Klucel (hydroxypropylcellulose) (HPC)) is reported as 94 % of control, the T/C (dose: 25.0 mg/kg/injection, schedule: Q04DX004 (ip), vehicle: Klucel (hydroxypropylcellulose) (HPC)) is reported as 94 % of control and the T/C [7] is reported as 96 % of control. The T/C [8] was 93 % of control.

For COc1ccc(-n2[nH]c3c(cnc4ccccc43)c2=O)cc1, the T/C (dose: 2.25 mg/kg/injection, schedule: Q04DX004 (ip), vehicle: saline with Tween-80) was 93 % of control, the T/C (dose: 4.5 mg/kg/injection, schedule: Q04DX004 (ip), vehicle: saline with Tween-80) was 95 % of control and the T/C (dose: 9.0 mg/kg/injection, schedule: Q04DX004 (ip), vehicle: saline with Tween-80) was 94 % of control. For the same compound, the T/C (dose: 18.0 mg/kg/injection, schedule: Q04DX004 (ip), vehicle: saline with Tween-80) was 89 % of control and the T/C (dose: 36.0 mg/kg/injection, schedule: Q04DX004 (ip), vehicle: saline with Tween-80) was 92 % of control.

With NCCNCC(O)CO (configuration not stated) the T/C [12] was 99 % of control, the T/C [13] was 103 % of control and the T/C [14] was 103 % of control. For the same compound, the T/C [15] was 99 % of control and the T/C (dose: 800.0 mg/kg/injection, schedule: Q04DX004 (ip), vehicle: saline) was 95 % of control.

For O=c1[nH]c2cc3c(cc2n2cccc12)oc1ccccc13, the T/C [3] was 90 % of control, the T/C [4] was 98 % of control and the T/C [6] was 90 % of control.

For Nc1ncc(C2OC(CO)C(O)C2O)c(=O)[nH]1 (configuration not stated), the T/C (dose: 25.0 mg/kg/injection, schedule: Q04DX004 (ip), vehicle: saline) was 106 % of control, the T/C [12] was 104 % of control and the T/C [13] was 103 % of control. For the same compound, the T/C [14] was 96 % of control and the T/C [15] was 100 % of control.

In the case of Clc1ccc(OCC(Cn2ccnc2)c2ccc(Cl)cc2)cc1 (configuration not stated), the T/C (dose: 18.75 mg/kg/injection, schedule: Q04DX004 (ip), vehicle: saline with Tween-80) is reported as 115 % of control, the T/C (dose: 37.5 mg/kg/injection, schedule: Q04DX004 (ip), vehicle: saline with Tween-80) is reported as 102 % of control and the T/C (dose: 75.0 mg/kg/injection, schedule: Q04DX004 (ip), vehicle: saline with Tween-80) is reported as 101 % of control.

Clc1ccc(-c2noc(CN3CCCCC3)n2)cc1 was tested, and the T/C [3] was 92 % of control, the T/C [4] was 96 % of control and the T/C [5] was 97 % of control.

In the case of O=S1ON=C(C2CCC(C3=NOS(=O)O3)C2)O1 (configuration not stated), the T/C [11] is reported as 108 % of control, the T/C [3] is reported as 102 % of control and the T/C [4] is reported as 103 % of control. The T/C [5] was 87 % of control.

For Cn1c(=S)[nH]n(CCOc2ccccc2)c1=S, the T/C (dose: 31.25 mg/kg/injection, schedule: Q04DX004 (ip), vehicle: saline with Tween-80) was 105 % of control, the T/C (dose: 62.5 mg/kg/injection, schedule: Q04DX004 (ip), vehicle: saline with Tween-80) was 99 % of control and the T/C (dose: 125.0 mg/kg/injection, schedule: Q04DX004 (ip), vehicle: saline with Tween-80) was 101 % of control. For the same compound, the T/C (dose: 250.0 mg/kg/injection, schedule: Q04DX004 (ip), vehicle: saline with Tween-80) was 100 % of control.

With CCC(NC(N)=O)C(CC)NC(N)=O (configuration not stated) the T/C (dose: 12.5 mg/kg/injection, schedule: Q04DX004 (ip), vehicle: saline with Tween-80) was 92 % of control and the T/C [11] was 92 % of control.

With CCNC(=O)OCc1cnc(C)c(O)c1COC(=O)NCC the T/C [12] was 97 % of control, the T/C [13] was 107 % of control and the T/C [14] was 108 % of control. For the same compound, the T/C [15] was 102 % of control.
